Where “and” joins values, the source holds several entries; their conditions need not be identical. Identical values can stand only once. Entries after “also recorded” stand apart in the source; their conditions may differ.

In data set [1] the test system is Escherichia coli, Staphylococcus aureus, and Pseudomonas aeruginosa. The conditions noted are these: supernatants, less silver chloride.
Data set [2] has the same test system. The experiment in a line: agar plates overlay method, summary of Table 2. The format is cell-based. On the procedure:
The usefulness of the compounds represented by Formulas 103 and 55 as antimicrobial agents was evaluated. In this test, a filter paper disc of 6 mm diameter was soaked with 20 μL of a silver compound of known concentration, and placed over a lawn of an organism in the agar plate. The diameter of the area in which growth of the organism is inhibited by the test solution was measured after an over night incubation as a measure of the relative antimicrobial activity of the silver compounds. The test organisms were Escherichia coli, Staphylococcus aureus, and Pseudomonas aeruginosa.

The nature of another data set: solubility. Particulars: 37: bromide salt; 20a, 20b: bromide salts.
The next data set deals with Escherichia coli. The format is cell-based. The procedure: (§1) In this test, a filter paper disc of 6 mm diameter was soaked with 20 μL of a silver compound of known concentration, and placed over a lawn of an organism in the agar plate. The diameter of the area in which growth of the organism is inhibited by the test solution was measured after an over night incubation as a measure of the relative antimicrobial activity of the silver compounds. The test organisms were Escherichia coli, Staphylococcus aureus, and Pseudomonas aeruginosa.

A further data set deals with Staphylococcus aureus. The format is cell-based. The procedure:
as §1

The next data set has as its system Pseudomonas aeruginosa. The format is cell-based. The procedure:
as §1

For `F[P-](F)(F)(F)(F)F.F[P-](F)(F)(F)(F)F.OCCn1cc[n+]2[c]1[Ag-][c]1n(CCO)cc[n+]1Cc1cccc(n1)C[n+]1ccn(CCO)[c]1[Ag-][c]1n(CCO)cc[n+]1Cc1cccc(n1)C2` [Compound 105], the “antimicrobial activity compared with silver nitrate (Table 3 summary)” value in data set [1] was “better antimicrobial activity than silver nitrate”. Further, in data set [2], the “antimicrobial properties (Table 2 summary)” value was “comparable to silver nitrate”. For the same compound, the “solubility in water / aqueous media” value in the data set “solubility” is “is not; also recorded: soluble in aqueous media”. In addition, the “Diameter of Inhibited Area” value with Escherichia coli was 10 mm and 11.58 mm; in the data set with Staphylococcus aureus it was 9 mm and 10.67 mm; in the data set with Pseudomonas aeruginosa it was 12 mm and 10.25 mm.

Source of the values: US8648205B2, “Metal complexes of N-heterocyclic carbenes” (The University of Akron, priority 2003, dated 2014).
